Measurements reported in patent US8889744B2, “Bis-trifluoromethyl honokiol analogs and their use in treating cancers” (priority 2009, dated 2014).
Entries after “also recorded” stand apart in the source; their conditions may differ.

What was measured:
[1] = test system: angiosarcoma; conditions: nude mice; cited from earlier work
[2] = test system: primary human endothelial cells; conditions: cited from earlier work
[3] = test system: SVR cells; conditions: in vitro; cited from earlier work
[4] = test system: A375 human melanoma cells; assay: Human melanoma xenograft A375 in nude mice; format: in vivo; conditions: 120 mg/kg daily intraperitoneal, FIG. 4
Experimental: The compound was evaluated in conjunction with control, and with a different honokiol analogue, the bis-dichloroacetate. A375 human melanoma cells were injected into nude mice (3 mice pre treatment group) and received vehicle (intralipid) or 120 mg/kg honokiol bisdichloroacetate ester (honokiol DCA) or hexafluoro, via daily intraperitoneal administration. The volume of the tumors was calculated by the formula volume=(width squared times length) 0.52, where width is the shortest dimension.

[5] = test system: SVR cells; assay: SVR tumor volume, SVR cells grown in DMEM with 0.5% or 10% FBS; format: in vivo, mice; conditions: FIG. 3
Experimental: FIG. 3 is a chart showing the effect of hexafluoro-honokiol on SVR tumor volume […] over time (days) in mice, as compared to control, where the SVR cells were grown in 0.5 and 10% serum Dulbecco's minimal essential media (DMEM).
Having shown that hexafluoro-honokiol appears to show better results than tacrolomis, a further experiment was conducted using SVR cells grown in Dulbecco's Modified Eagle Media (DMEM) supplemented with 0.5% or 10% fetal bovine serum (FBS), according to the techniques described in Bai, et al., J. Biol. Chem., Vol. 278, Issue 37, 35501-35507, Sep. 12, 2003.

[6] = test system: Rac-GTP (active Rac); assay: Rac activation pull-down assay (GST-PBD, Western blot); format: cell-based; conditions: DAOY medulloblastoma cells, FIG. 1
Experimental: […] Cells were lysed with ice-cold lysis buffer, containing 25 mM HEPES pH 7.5, 150 mM NaCl, 1% NP-40, 10 mM MgCl2, 1 mM EDTA, 10% glycerol and protease inhibitors. A sample was kept for total Rac and Ras level analysis.
The remaining lysate was used for the pull-down (Western Blot) assay to isolate the GTP-loaded forms of Rac or Ras using the p21-binding domain of PAK1 fused to glutathione S-transferase (GST-PBD) (Glaven et al., J. Biol. Chem., 274, 2279-2285 (1999)). The GST-PBD fusion protein was prepared as previously described (Abassi, Y. and Vuori, K. EMBO J. 21, 4571-4582 (2002)).
Activated (GTP-bound) Rac was affinity-precipitated with p21-activated kinase-1 protein binding domain peptide, which binds only to Rac-GTP and not Rac-GDP. p21-Activated kinase-1 protein binding domain-agarose (7.5 μg/mg cell lysate) was added, and the reaction mixture was gently rocked at 4° C. for 60 min. The agarose beads were collected by pulsing for 5 s in a microcentrifuge at 14,000×g, and the beads were washed three times with 0.5 ml of lysis buffer.
The agarose beads were resuspended in 40 μl of 1×SDS sample buffer and boiled for 5 min. The supernatant was separated by SDS-PAGE on a 12% gel, and the proteins were transferred to nitrocellulose membrane. […] After incubation with the secondary antibody, Rac and Ras were detected by enhanced chemiluminescence.

[7] = test system: SVR angiosarcoma cells; assay: In vivo tumorigenesis, SVR tumor model in mice
Experimental: SVR (5×10^5) cells were injected into the flank of 6-week-old nude male mice obtained from Charles River Breeding Laboratories. When tumors became visible at approximately 1 week after inoculation, mice received 3 mg/day hexafluoro-honokiol, tacrolomis, or vehicle control suspended in 20% Intralipid (Baxter Healthcare, Deerfield, Ill.) in a total volume of 0.3 ml intraperitoneally. Tumor volume was measured using the formula (width^2×length)×0.52 where width represents the shortest dimension.
The efficacy of the hexafluoro-honokiol compound was then tested in an SVR tumor model in mice, and compared to that of a control and to Tacrolimis. The assay was performed according to the conditions in J Biol Chem. 2003 Sep. 12; 278(37):35501-7, the contents of which are hereby incorporated by reference.
Nude mice injected with 0.5 million SVR angiosarcoma cells were treated with hexafluoro-honokiol (120 mg/kg), Tacrolimis, or control (Cancer Res. 2009 Jun. 1; 69(11):4621-8), with a total of 4 mice in each group. […] The degree of inhibition with hexafluoro-honokiol was more marked than with the same dose of Tacrolimis.

Compound	efficacy against angiosarcoma [1]	inhibition of primary human endothelial cells compared with fibroblasts [2]	anti-proliferative activity against SVR cells [3]	efficacy of the two compounds compared with each other [4]	tumor volume versus control [4]	tumor volume over time versus control [5]	levels of total Rac [6]	levels of Rac-GTP (active Rac) ([6]; with PDGF-BB)	weight loss or other toxicities ([7]; 3 mg/day intraperitoneally in 20% Intralipid)	tumor volume versus control ([7]; 120 mg/kg (3 mg/day) intraperitoneally, FIG. 2)	degree of inhibition of tumor volume compared with Tacrolimis ([7]; same dose, FIG. 2)
honokiol	highly effective	preferential inhibition	potent anti-proliferative activity	–	–	–	–	–	–	–	–
C=CCc1ccc(OC(=O)C(Cl)Cl)c(-c2ccc(OC(=O)C(Cl)Cl)c(CC=C)c2)c1 [honokiol bis-dichloroacetate, honokiol bisdichloroacetate ester, reference compound]	–	–	–	comparable efficacy	significantly better than control	–	–	–	–	–	–
C=CCc1cc(C(c2ccc(O)c(CC=C)c2)(C(F)(F)F)C(F)(F)F)ccc1O [hexafluoro-honokiol, 2,2-bis(3-allyl-4-hydroxy-phenyl)-1,1,1,3,3,3-hexafluoropropane]	–	–	–	comparable efficacy	significantly better than control	significantly better than control	not decreased	significantly decreased; also recorded: disappearance of RAC-GTP	No weight loss or other toxicities were observed	significantly different at all time points	more marked
